From patent EP2787003A1, “Antimicrobial peptide produced by marine sponge-derived Bacillus subtilis” (priority 2013, dated 2014) come the findings set out here.

One data set relates to P. aeruginosa. Put plainly: Spot on lawn assay. In kind it is cell-based, Pseudomonas aeruginosa PAO1. On the set-up: key: +, clear halo of growth inhibition; ++: multiple +, increased activity as assessed visually by the increased diameter of the inhibition zone; +++: multiple +, increased activity as assessed visually by the increased diameter of the inhibition zone; ++++: multiple +, increased activity as assessed visually by the increased diameter of the inhibition zone; +++++: multiple +, increased activity as assessed visually by the increased diameter of the inhibition zone; -, no inhibition. As to conditions: indicator P. aeruginosa; *activity only detected with 4 to 5 times more peptide than that used for the other indicators. As for the experimental part:
(§1) Antimicrobial activity of isolate MMA7 against the indicator strains was initially assessed with a deferred antagonism assay as described by Phelan et al. (2012). Subsequent testing of supernatants, crude extracts and purified compounds was carried out with a well and/or a spot on lawn assays. Essentially, 5 µl of samples were spotted onto 20 ml agar plates seeded with the indicator strain to a final OD600 of 0.015, or 30 µl aliquots were applied to a 5 mm well made on identical plates.

The test system of a further data set is hVISA. Put plainly: Spot on lawn assay. In kind it is cell-based, hVISA 35197. On the set-up: key: +, clear halo of growth inhibition; ++: multiple +, increased activity as assessed visually by the increased diameter of the inhibition zone; +++: multiple +, increased activity as assessed visually by the increased diameter of the inhibition zone; ++++: multiple +, increased activity as assessed visually by the increased diameter of the inhibition zone; +++++: multiple +, increased activity as assessed visually by the increased diameter of the inhibition zone; -, no inhibition. Conditions: indicator hVISA.

In data set [1] the test system is L. monocytogenes. Description: Mode of action: growth of the indicator in 96 well plates (optical density, cfu). In kind it is cell-based, Listeria monocytogenes EGDe. The method, then: Initially 100 µl aliquots of a two-fold serial dilution of the MB 12h cultures CFS, ASCE and the purified peptide (approx. 150 µg ml^-1), were applied to individual wells on a 96 flat bottom multiple well plate (Sarstedt). An overnight culture of the indicator strain was diluted to an OD595 of 0.05 and 100 µl were applied to each of the wells containing the bioactive peptide. The plate was incubated at 37 °C, with agitation (200 rpm) and the optical density (595 nm) was monitored hourly. Wells where the indicator was added to water only were used as negative controls. Subsequently, 100 µl of indicator overnight cultures diluted to an OD595 of 0.05 were applied to individual wells on a 96 well plate and allowed to grow to an OD595 of 0.5-0.6. 100 µl of a two-fold serial dilutions of the CFS, the respective ASCE and purified peptide, or water, were then applied to the different wells and growth continued to be monitored hourly. At the different time points samples were taken and the number of cfu determined by plating dilutions onto appropriate agar plates.

The test system of a further data set is B. megaterium. Put plainly: Spot on lawn assay. In kind it is cell-based, Bacillus megaterium ATCC 19213 (BGSC 7A2). On the set-up: key: +, clear halo of growth inhibition; ++: multiple +, increased activity as assessed visually by the increased diameter of the inhibition zone; +++: multiple +, increased activity as assessed visually by the increased diameter of the inhibition zone; ++++: multiple +, increased activity as assessed visually by the increased diameter of the inhibition zone; +++++: multiple +, increased activity as assessed visually by the increased diameter of the inhibition zone; -, no inhibition. As to conditions: indicator B. megaterium. The method, then:
as §1

The test system of the next data set is C. sporogenes. Put plainly: Spot on lawn assay. In kind it is cell-based, Clostridium sporogenes NCDO 1791. Further details: key: +, clear halo of growth inhibition; ++: multiple +, increased activity as assessed visually by the increased diameter of the inhibition zone; +++: multiple +, increased activity as assessed visually by the increased diameter of the inhibition zone; ++++: multiple +, increased activity as assessed visually by the increased diameter of the inhibition zone; +++++: multiple +, increased activity as assessed visually by the increased diameter of the inhibition zone; -, no inhibition. As to conditions: indicator C. sporogenes. As for the experimental part:
as §1

The next data set concerns C. parapsilosis. Description: Spot on lawn assay. On the set-up: key: +, clear halo of growth inhibition; ++: multiple +, increased activity as assessed visually by the increased diameter of the inhibition zone; +++: multiple +, increased activity as assessed visually by the increased diameter of the inhibition zone; ++++: multiple +, increased activity as assessed visually by the increased diameter of the inhibition zone; +++++: multiple +, increased activity as assessed visually by the increased diameter of the inhibition zone; -, no inhibition. The data set is classed as cell-based, Candida parapsilosis. Conditions: indicator C. parapsilosis. The method, then: as §1

The subject of another data set is Candida strains. Put plainly: Spot on lawn assay. The data set is classed as cell-based. Conditions: any of the Candida strains. As for the experimental part:
as §1
The activity of the purified peptide was tested together with its ASCE preparations, against the strains which were initially used as indicators on the colony overlay assay with the producing strain MMA7 (Table 4). […] No activity was detected against any of the Candida strains.

For the next data set, the system named is A. hydrophila. Description: Spot on lawn assay. The data set is classed as cell-based, Aeromonas hydrophila LMG 2844. On the set-up: key to Antimicrobial activity, spot on lawn assay: +, clear halo of growth inhibition; ++: multiple +, increased activity as assessed visually by the increased diameter of the inhibition zone; +++: multiple +, increased activity as assessed visually by the increased diameter of the inhibition zone; ++++: multiple +, increased activity as assessed visually by the increased diameter of the inhibition zone; +++++: multiple +, increased activity as assessed visually by the increased diameter of the inhibition zone; -, no inhibition. As for the experimental part:
as §1

A further data set concerns the target proteinase K (Parengyodontium album, UniProt P06873). Description: Susceptibility to proteolytic enzymes, bioactivity by spot on lawn assay. As to conditions: proteinase K 1 mg ml^-1, 37 °C, 1 h; indicator L. monocytogenes.
Data set [2] concerns L. monocytogenes. Description: Activity at different pH values, spot on lawn assay.
The next data set has as its system Alteromonas sp. Description: Spot on lawn assay. In kind it is cell-based. On the set-up: key to Antimicrobial activity, spot on lawn assay: +, clear halo of growth inhibition; ++: multiple +, increased activity as assessed visually by the increased diameter of the inhibition zone; +++: multiple +, increased activity as assessed visually by the increased diameter of the inhibition zone; ++++: multiple +, increased activity as assessed visually by the increased diameter of the inhibition zone; +++++: multiple +, increased activity as assessed visually by the increased diameter of the inhibition zone; -, no inhibition. The method, then:
as §1

The next data set deals with α-chymotrypsin (Bos taurus, UniProt P00766). Description: Susceptibility to proteolytic enzymes, bioactivity by spot on lawn assay. As to conditions: α-chymotrypsin 1 mg ml^-1, 37 °C, 1 h; indicator L. monocytogenes.

Chain of proteinase K (P06873 106-384): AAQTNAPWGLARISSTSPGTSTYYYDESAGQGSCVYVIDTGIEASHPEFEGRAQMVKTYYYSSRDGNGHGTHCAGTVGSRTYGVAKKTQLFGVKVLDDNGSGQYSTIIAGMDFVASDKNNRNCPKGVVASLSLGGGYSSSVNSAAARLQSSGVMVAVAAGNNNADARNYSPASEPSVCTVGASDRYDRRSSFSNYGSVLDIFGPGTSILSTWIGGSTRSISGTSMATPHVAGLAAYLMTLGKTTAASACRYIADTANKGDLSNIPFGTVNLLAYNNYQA

As to `C=C1NC(=O)[C@@H]2CSC[C@@H](NC(=O)[C@@H]3CS[C@@H](C)[C@H]4NC(=O)[C@H](Cc5ccccc5)NC(=O)[C@H](NC(=O)[C@H](CCCNC(=N)N)NC(=O)[C@@H]5CSC[C@@H](NC(=O)[C@H](CCC(N)=O)NC(=O)[C@@H](NC(=O)[C@@H](NC(=O)/C(=C/C)NC(=O)[C@H](CCCCN)NC(=O)CNC(=O)[C@@H](NC(=O)/C(=C/C)NC(=O)[C@H](C)NC(=O)[C@H](Cc6c[nH]c7ccccc67)NC(=O)C(=O)CC)[C@@H](C)CC)[C@@H](C)CC)C(C)C)C(=O)N[C@@H](C(C)C)C(=O)N[C@@H](CCCCN)C(=O)N[C@@H](CCCCN)C(=O)N5)[C@H](C)SC[C@H](NC4=O)C(=O)NCC(=O)N3)C(=O)N[C@@H](CC(C)C)C(=O)NCC(=O)N[C@H](CSC[C@@H](C(=O)N[C@@H](CC(N)=O)C(=O)O)NC(=O)[C@H](CC(N)=O)NC1=O)C(=O)N2` [Subtilomycin], the “Antimicrobial activity, spot on lawn assay” value is listed as “+*” with P. aeruginosa; “+” in the data set on hVISA; “++” with B. megaterium; “+++” in the data set with C. sporogenes; “-” in the data set with C. parapsilosis; “+*” in the data set with A. hydrophila (indicator A. hydrophila, *activity only detected with 4 to 5 times more peptide than that used for the other indicators). Moreover, the “Antimicrobial activity, spot on lawn assay” value in the data set on Alteromonas sp. (indicator Alteromonas sp., *activity only detected with 4 to 5 times more peptide than that used for the other indicators) is given as “+*”. In addition, in the data set with L. monocytogenes [1] (L. monocytogenes), the “Nature of the inhibitory activity (mode of action)” value is reported as “bacteriolytic action”. The “Effect on growth of the indicator” value in the data set with L. monocytogenes [1] (L. monocytogenes grown in presence of sample from the beginning of growth (T0), samples from 12 h MB cultures) is given as “completely abolish growth”. Besides, the Antimicrobial activity entry in the data set with Candida strains is given as “No activity”. In addition, the “Amount of peptide needed for detectable activity relative to that required to inhibit the Gram-positive indicators” value with A. hydrophila (A. hydrophila) and in the data set with Alteromonas sp. (Alteromonas sp.) was “four to five fold more peptide” throughout. The “Antimicrobial activity after proteolytic treatment” value at proteinase K and at α-chymotrypsin was “None of the treatments resulted in a decrease of activity” in each case. The “Activity at different pH” value with L. monocytogenes [2] (pH 9, 1 h at room temperature) is “reduction in activity”; in the data set with L. monocytogenes [2] (pH range 2 to 8, 1 h at room temperature), “fully active”; in the data set on L. monocytogenes [2] (pH values higher than 9 (up to 11)) it was “no activity”.
